Where two headings read alike, the source gives them in different places.
How the values were obtained:
[1] = system: adult worker honeybees (Apismellifera); details: acute contact; cited from earlier work
[2] = system: adult worker honeybees (Apismellifera); details: acute oral; cited from earlier work
[3] = system: M. brassicae larvae; parameters: species or system Mamestra brassicae; details: in vivo
[4] = system: cereal aphid Sitobion avenae; details: in vivo
[5] = system: central nerve chord of M. brassicae larvae; details: in vivo
[6] = system: adult worker honeybees (Apismellifera); details: in vivo, po
[7] = system: tomato moth (Lacanobia oleracea); assay type: in vivo
Experimental: Effect of Transgenic Arabidopsis Expressing Fusion Proteins when Fed to Tomato Moth (Lacanobia oleracea)
20 neonate Lacanobia oleracea larvae were placed in pots (4 replicates, 5 larvae per pot) and allowed to feed on detached leaves of transgenic Arabidopsis plants. Survival was measured over the course of a 14-day period and weights were measured at days 11 and 14. Assays were repeated giving a total sample number of 40. Treatments used were control, GNA-expressing, ButalT/GNA fusion protein expressing, and GNA/ButalT fusion protein expressing. Two independent lines expressing the ButalT/GNA fusion protein (lines 40 and 45) were used.

[8] = system: M. brassicae larvae; parameters: species or system Mamestra brassicae; details: in vivo; remark: listed apart in the source
[9] = system: Honeybees; details: in vivo
[10] = system: vertebrate-muscle preparations; details: cited from earlier work
[11] = system: M. brassicae larvae; parameters: species or system Mamestra brassicae; details: in vivo; remark: listed apart in the source
[12] = system: Heliothis virescens; details: in vivo; cited from earlier work
[13] = system: newborn mice; details: mouse, in vivo; cited from earlier work
[14] = system: M. brassicae larvae; parameters: species or system Mamestra brassicae; details: in vivo; remark: listed apart in the source
[15] = system: cotton bollworm Heliothis armigera; details: in vivo; cited from earlier work

C/C(=N\C#N)N(C)Cc1ccc(Cl)nc1 [Acetamiprid]
reported LD50 [1]: 8.09 μg/bee | reported LD50 [2]: 14.5 ug/bee

Galanthus nivalis agglutinin [GNA]
average weight of surviving larvae reduced by [3]: 45% | survival (larvae remained) [3]: 80% | survival compared to control treatments [4]: does not have a significant effect on the survival | bands in nerve tissue (anti-GNA Western blot) [5]: not observed | presence in nerve chord and haemolymph samples (anti-GNA Western blot) [5]: positive immunoreactivity | LD50 [6]: > 100 μg/bee | LD50 to honeybees [6]: greater than 100 ug/bee | effects on mortality [6]: smaller effects on mortality than acetamiprid | survival ([7]; first assay (FIG. 16), 14 days, ButalT/GNA line 40, GNA line 3, control 93%): 90% | survival / larval mortality compared to controls ([7]; neonate larvae, conclusions): no effect on larval mortality | reduction in mean weight ([7]; second assay, days 11 and 14, vs control): approx. 50% | effect upon larvae when injected [8]: no effect | toxicity by injection [9]: higher toxicity than FP5

ω-ACTX-Hv1a
effect on vertebrate-muscle preparations [10]: no effect | larval feeding / larval growth [11]: no reduction in larval growth | oral activity ([11]; po): not orally active | PD50 [12]: 250 pmol/g | effect on newborn mice [13]: harmless | symptoms after injection of higher doses [8]: displayed symptoms of paralysis | larval growth [14]: no effect on larval growth | ED50 [15]: 3 nmol/g
